This assay addresses T1, IDO1 (Homo sapiens, UniProt P14902).
T1 construct: HeLa cells were treated with a test compound in the presence of IFNγ, which induces IDO1 expression; host or cells: H1-HeLa cells, IDO1 induced with IFNγ
Briefly: Cell-based (HeLa) assay for measurement of IDO1 inhibition (kynurenine levels in supernatant). To be noted: H1-HeLa cells, IDO1 induced with IFNγ, 48 hour incubation, kynurenine read by absorbance at 480 nm; geometric mean of a minimum of four determinations. On the procedure:
Example B-1. Cell-Based (HeLa) Assay for Measurement of IDO1 Inhibition
To measure IDO1 inhibition in tissue culture, HeLa cells were treated with a test compound in the presence of IFNγ, which induces IDO1 expression. Following incubation, cell supernatants were assayed for kynurenine levels, an indicator of IDO1 activity.
The following day, the test compounds were added in DMSO (0.5% final) at various concentrations, and IDO1 was inducibly expressed by the addition of 50 uL/well of 50 ng/mL of INFγ (Peprotech #300-02) in cell plating media. As a positive control, 50 uL of the cell plating media without IFNγ was added to several wells. Following a 48 hour incubation, the plates were spun down at 1,200 RPM for 5 min at 10° C. 65 μL/well of the supernatant was then transferred to new 384-well plates (Thermo #262160) that contained 10 uL/well of 30% TCA (Sigma # TO699), and the plates were sealed and incubated at 60° C. for 30 min. The plates were then centrifuged for 15 min at 2,000 RPM at 10° C. 40 μL/well of the supernatant was transferred to new 384-well plates (Thermo #262160) and was reacted with 40 μL/well of 2% (w/v) p-dimethlyaminobenzaldehyde (Sigma #156417) in glacial acetic acid (Sigma #A6283). The reaction was incubated at room temperature for 10 min and absorbance at 480 nm was read using a PerkinElmer Envision plate reader.
Data in Table 1 were normalized based on positive (−IFNγ) and negative (+IFNγ) controls and EC50 values were calculated from the fit of the dose—response curves to a four-parameter equation. All EC50 values represent geometric mean values of a minimum of four determinations. These assays generally produced results within 2-fold of the reported mean
T1 sequence (P14902 whole entry): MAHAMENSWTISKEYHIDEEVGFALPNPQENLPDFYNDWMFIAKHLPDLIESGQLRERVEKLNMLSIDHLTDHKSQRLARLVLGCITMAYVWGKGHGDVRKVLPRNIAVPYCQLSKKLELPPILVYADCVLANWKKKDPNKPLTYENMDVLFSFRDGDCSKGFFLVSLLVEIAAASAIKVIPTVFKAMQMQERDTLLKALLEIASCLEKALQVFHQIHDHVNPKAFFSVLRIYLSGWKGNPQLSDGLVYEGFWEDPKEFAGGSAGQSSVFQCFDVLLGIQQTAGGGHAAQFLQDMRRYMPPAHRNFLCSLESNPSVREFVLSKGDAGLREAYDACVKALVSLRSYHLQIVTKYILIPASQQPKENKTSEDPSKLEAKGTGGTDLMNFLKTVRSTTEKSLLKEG
For orientation: EC50 means the concentration giving half of the maximal effect. `Cc1ccc(-c2cccc3c2C(C)(C)C(=O)N3c2ncccn2)nc1C(=O)Nc1ccc(F)cc1` [Example 41, 6-(3,3-dimethyl-2-oxo-1-(pyrimidin-2-yl)indolin-4-yl)-N-(4-fluorophenyl)-3-methylpicolinamide] showed an EC50 of 424 nM.

Compound `CC1(C)C(=O)N(c2cccnc2)c2nccc(-c3ccc(C(F)(F)F)c(C(=O)Nc4ccccc4)c3)c21` [Example 42, 5-(3,3-dimethyl-2-oxo-1-(pyridin-3-yl)-2,3-dihydro-1H-pyrrolo[2,3-b]pyridin-4-yl)-N-phenyl-2-(trifluoromethyl)benzamide] came in with an EC50 of 37 nM.

Compound `CC1(C)C(=O)N(c2ccccn2)c2nccc(-c3cnc(C(F)(F)F)c(C(=O)Nc4ccc(F)c(F)c4)c3)c21` [Example 43, N-(3,4-difluorophenyl)-5-(3,3-dimethyl-2-oxo-1-(pyridin-2-yl)-2,3-dihydro-1H-pyrrolo[2,3-b]pyridin-4-yl)-2-(trifluoromethyl)nicotinamide] displayed an EC50 of 103 nM. Compound `CC1(C)C(=O)N(c2ncccn2)c2cccc(-c3ccc(C(F)(F)F)c(C(=O)Nc4ccc(F)cc4)n3)c21` [Example 44] showed a concentration for a half-maximal effect (EC50) of 113 nM. As for `Cc1ccc(-c2cccc3c2C(C)(C)C(=O)N3c2ncccn2)c(F)c1C(=O)Nc1ccc(F)cc1` [Example 45, 3-(3,3-dimethyl-2-oxo-1-(pyrimidin-2-yl)indolin-4-yl)-2-fluoro-N-(4-fluorophenyl)-6-methylbenzamide], the figure is 32 nM. In turn, `CC1(C)C(=O)N(c2ncccn2)c2cccc(-c3ccc(C(F)(F)F)c(C(=O)Nc4ccnnc4)c3)c21` [Example 46, 5-(3,3-dimethyl-2-oxo-1-(pyrimidin-2-yl)indolin-4-yl)-N-(pyridazin-4-yl)-2-(trifluoromethyl)benzamide] displayed an EC50 of 283 nM. `CC1(C)C(=O)N(c2ncccn2)c2cccc(-c3ccc(C(F)(F)F)c(C(=O)Nc4cncnc4)c3)c21` [Example 47, 5-(3,3-dimethyl-2-oxo-1-(pyrimidin-2-yl)indolin-4-yl)-N-(pyrimidin-5-yl)-2-(trifluoromethyl)benzamide]: a half-maximal response (EC50) required 810 nM. Compared with the last compound, the EC50 is about 2.9-fold higher.

For `CC1(C)C(=O)N(c2ncccn2)c2cccc(-c3ccc(C(F)(F)F)c(C(=O)Nc4ccncn4)c3)c21` [Example 48, 5-(3,3-dimethyl-2-oxo-1-(pyrimidin-2-yl)indolin-4-yl)-N-(pyrimidin-4-yl)-2-(trifluoromethyl)benzamide], the 50% effective concentration (EC50) worked out at 73 nM. Compared with the last compound, the EC50 is about 11-fold lower. As for `CC1(C)C(=O)N(c2ccncn2)c2cccc(-c3cnc(C(F)(F)F)c(C(=O)Nc4ccc(F)cc4)c3)c21` [Example 49, 5-(3,3-dimethyl-2-oxo-1-(pyrimidin-4-yl)indolin-4-yl)-N-(4-fluorophenyl)-2-(trifluoromethyl)nicotinamide], the figure is 33 nM; as for `CC1(C)C(=O)N(c2ncccn2)c2nccc(-c3ccc(C(F)(F)F)c(C(=O)Nc4ccc(F)c(F)c4)c3)c21` [Example 50, N-(3,4-difluorophenyl)-5-(3,3-dimethyl-2-oxo-1-(pyrimidin-2-yl)-2,3-dihydro-1H-pyrrolo[2,3-b]pyridin-4-yl)-2-(trifluoromethyl)benzamide], 50 nM. `CC1(C)C(=O)N(c2ccncn2)c2cccc(-c3cnc(C(F)(F)F)c(C(=O)Nc4ccc(F)c(F)c4)c3)c21` [Example 51, N-(3,4-difluorophenyl)-5-(3,3-dimethyl-2-oxo-1-(pyrimidin-4-yl)indolin-4-yl)-2-(trifluoromethyl)nicotinamide] returned a half-maximal effective concentration (EC50) of 41 nM. This EC50 and that of the compound before are within 1.5-fold of each other. As for `CC1(C)Oc2c(-c3ccc(C(F)(F)F)c(C(=O)Nc4ccc(F)cc4)c3)cccc2N(c2ccccn2)C1=O` [Example 52, 5-(2,2-dimethyl-3-oxo-4-(pyridin-2-yl)-3,4-dihydro-2H-benzo[b][1,4]oxazin-8-yl)-N-(4-fluorophenyl)-2-(trifluoromethyl)benzamide], the figure is 491 nM; as for `Cc1ccc(-c2cccc3c2C(C)(C)C(=O)N3Cc2ncccn2)cc1C(=O)Nc1ccc(F)cc1` [Example 53, 5-(3,3-dimethyl-2-oxo-1-(pyrimidin-2-ylmethyl)indolin-4-yl)-N-(4-fluorophenyl)-2-methylbenzamide], 1020 nM; as for `CC1(C)Oc2c(-c3ccc(C(F)(F)F)c(C(=O)Nc4ccc(F)cc4)c3)cccc2N(c2ncccn2)C1=O` [Example 54, 5-(2,2-dimethyl-3-oxo-4-(pyrimidin-2-yl)-3,4-dihydro-2H-benzo[b][1,4]oxazin-8-yl)-N-(4-fluorophenyl)-2-(trifluoromethyl)benzamide], 1340 nM. As for `CC1(C)Oc2c(-c3ccc(C(F)(F)F)c(C(=O)Nc4ccc(F)cc4)c3)cccc2N(c2cnccn2)C1=O` [Example 55, 5-(2,2-dimethyl-3-oxo-4-(pyrazin-2-yl)-3,4-dihydro-2H-benzo[b][1,4]-oxazin-8-yl)-N-(4-fluorophenyl)-2-(trifluoromethyl)benzamide], the figure is 101 nM; as for `CC1(C)C(=O)N(c2cccnc2)c2cccc(-c3ccc(C(F)(F)F)c(-c4nc5cc(F)ccc5[nH]4)c3)c21` [Example 56, 4-(3-(5-fluoro-1H-benzo[d]imidazol-2-yl)-4-(trifluoromethyl)phenyl)-3,3-dimethyl-1-(pyridin-3-yl)indolin-2-one], 3030 nM; as for `CC1(C)C(=O)N(c2cccnc2)c2cccc(-c3cnc(C(F)(F)F)c(C(=O)Nc4ccccc4)c3)c21` [Example 58, 5-(3,3-dimethyl-2-oxo-1-(pyridin-3-yl)indolin-4-yl)-N-phenyl-2-(trifluoromethyl)nicotinamide], 53 nM.
